Here are results for 4 compounds from patent US20080132529A1, “Method of improving bioavailability for non-sedating barbiturates” (priority 2006, published 2008).

For data set [1] the following is noted: in vivo; cited from earlier work.
Data set [2] in a line: Phase I food-effect crossover pharmacokinetic study, single 400 mg oral dose of T2000 (DMMDPB), fasting vs fed. The note with it: for Rate and extent of absorption when administered after a high fat, high calorie breakfast: fed vs fasting; for Rate and extent of absorption when administered after a high fat, high calorie breakfast / AUC(0-inf) / Cmax / half-life / Tmax / AUC0-t Ratio (Fasting/Fed) / T1/2 Ratio (Fasting/Fed) / Tmax Ratio (Fasting/Fed) / Cmax Ratio (Fasting/Fed) / AUC0-∞ Ratio (Fasting/Fed): single 400 mg oral dose of DMMDPB; for AUC(0-t) / AUC(0-inf) / Cmax / half-life / Tmax: male, human, plasma, po, 400 mg; for AUC(0-t): AUC0-t, plasma analyte after single 400 mg oral dose of DMMDPB; for AUC(0-t) / Cmax / Tmax / AUC0-t Ratio (Fasting/Fed) / Cmax Ratio (Fasting/Fed): n=23; for AUC(0-t) / AUC(0-inf): least-squares geometric mean; for AUC(0-inf): AUC0-∞; for AUC(0-inf) / half-life / AUC0-∞ Ratio (Fasting/Fed): n=18 for DMMDPB, n=20 for MMMDPB; for half-life / Tmax: arithmetic mean; for AUC0-t Ratio (Fasting/Fed): ratio fasting/fed of geometric means. The method, then: This was a single center, randomized, single dose, open-label, 2-way, food-effect crossover study to compare the rate and extent of absorption of T2000, administered as 4×100 mg capsules (for a total dose of 400 mg), under fasting and fed conditions. Subjects were confined to a clinical research facility from at least 11 hours prior to drug administration until after the 72.0-hour post-dose blood draw, in each period. Single oral doses were separated by a washout period of at least 21 days.
All subjects met the inclusion and exclusion criteria described in the protocol and were judged eligible for the study, based on medical history, demographic data (including sex, age, body weight [kg], height [cm], and BMI [kg/m2], medication history, physical examination, vital signs (blood pressure, respiratory rate, heart rate, and oral temperature), 12-lead ECG, brief neurological examination (including assessment of mental status, orientation, memory, arithmetic and spelling, eye movement, gait and coordination), opthalmology examination (lamp examination; performed within 3 months prior to the first dose), and clinical laboratory tests (hematology, biochemistry, urinalysis, HIV and hepatitis C [HCV] antibodies, and hepatitis B antigen [HBsAg]). […] Screening procedures took place within 28 days prior to Period 1 drug administration.
Subjects abstained from food or drink containing xanthine derivatives or xanthine-related compounds (e.g. coffee, tea, caffeine-containing sodas, colas, chocolate, or decaffeinated products) and energy drinks from 48 hours prior to drug administration, until the end of sample collection in each period; alcohol from 24 hours prior to drug administration, until the end of sample collection in each period, and grapefruit products (e.g. fresh, canned, or frozen); natural food supplements (including garlic as a supplement), and vitamins from 7 days prior to drug administration, until the end of sample collection in each period. Any subjects who felt dizzy or drowsy when they left the clinical facility were advised against performing activities requiring mental alertness, judgment, and physical coordination until they felt safe to do so.
Treatment A: The subjects fasted for at least 10 hours prior to drug administration.
Treatment B: After a supervised overnight fast of at least 10 hours, and 30 minutes before drug administration, subjects were served a standard high-fat, high-caloric breakfast of approximately 1000 calories (approximately 150 calories from protein, 250 calories from carbohydrates, and […]). […] Subjects were required to completely consume this breakfast within 30 minutes, and prior to drug administration. Subjects were dosed on the momrings of Apr. […] Subjects were administered the test or reference medication as a single oral dose of 4 capsules, each containing 100 mg of prodrug T2000 (total dose of 400 mg), with approximately 240 ml of water. Subjects were dosed as specified in the protocol, and subsequently fasted for a period of at least 4 hours. A mouth and hand check was performed to ensure the subjects had swallowed the study medication.
All blood samples were drawn into blood collection tubes (1×7 ml) containing EDTA K3 prior to drug administration and 0.500, 1.00, 2.00, 3.00, 4.00, 5.00, 6.00, 8.00, 10.0, 12.0, 15.0, 18.0, 24.0, 36.0, 48.0, 72.0, 96.0, and 120 hours post-dose in each period. All blood samples were collected via direct venipuncture.
Analysis of T-2000, MMMDPB and DPB were performed using High Performance Liquid Chromatographic Method with Tandem Mass. Spectrometry Detection. The analytical method was developed and validated.

Data set [3] is described as follows: Early pharmacokinetic studies in dogs, high fat meal vs customary dog food. Type of data set: in vivo.
Data set [4] deals with electroshock and chemoconvulsive seizures. The note with it: animal studies; at doses which exhibited no neurological impairment; cited from earlier work.
Where [5] appears, read: Fed (high-fat breakfast 30 min before dose).

A word on the half-life: it is how long it takes for the measured level to halve. High values mean slow decline, low ones rapid decline.

Values joined by “and” are separate entries in the source; they are usually repeats but may differ in a detail not shown here. Equal values may be shown once.

Consider `CCC1(c2ccccc2)C(=O)NC(=O)NC1=O` [phenobarbital], for which, in data set [1], the “Serum and brain levels on administration with food” value is “significantly decreased”.
Regarding `COCN1C(=O)N(COC)C(=O)C(c2ccccc2)(c2ccccc2)C1=O` [DMMDPB, 1,3-dimethoxymethyl-5,5-diphenyl barbituric acid], in data set [2], the “Rate and extent of absorption when administered after a high fat, high calorie breakfast” value (“Rate and extent of absorption” below) is listed as “increased”; the “AUC0-t Ratio (Fasting/Fed)” value was 35.6% and 35.57%; the “T1/2 Ratio (Fasting/Fed)” value is listed as 141.55%; the “Tmax Ratio (Fasting/Fed)” value stood at 154.34%. In data set [2], the “Cmax Ratio (Fasting/Fed)” value is 14.6% and 14.58%; the “AUC0-∞ Ratio (Fasting/Fed)” value is listed as 49.46%. In data set [2] (Fasting, healthy subjects), this compound showed an AUC(0-t) of 3100 ng·h/mL. Further, the AUC(0-t) in data set [2] (setting [5]) amounted to 8710 ng·h/mL. For the same compound, in data set [2] (Fasting), the AUC(0-inf) was determined as 5320 ng·h/mL, the Cmax amounted to 129 ng/mL and the Tmax amounted to 7.52 h. Further, in data set [2] (Fed), the AUC(0-inf) stood at 10800 ng·h/mL, the Cmax was determined as 887 ng/mL and the Tmax turned out to be 4.88 h. The same compound gave a half-life in data set [2] (T1/2, Fasting) of 26.1 h. For the same compound, the half-life in data set [2] (T1/2, Fed) is 18.5 h. The “Adverse events reported (total)” value in data set [2] (minor, occurred in both fed and fasting conditions, 23 subjects, single 400 mg oral doses) turned out to be 35. Also, the Tolerability result in data set [2] (single 400 mg oral dose, fed and fasting, healthy males) was “well tolerated”. For the same compound, in data set [3], the “Absorption with a high fat meal compared with customary dog food” value is listed as “more completely absorbed”. Moreover, the “Anticonvulsant activity against electroshock and chemoconvulsive seizures” value in data set [4] is listed as “anticonvulsant properties”.
Consider `COCN1C(=O)NC(=O)C(c2ccccc2)(c2ccccc2)C1=O` [MMMDPB, monomethoxymethyl-5,5-diphenyl barbituric acid], for which, in data set [2], the “Rate and extent of absorption” value is “increased”; the “AUC0-t Ratio (Fasting/Fed)” value was 36.6% and 36.56%; the “T1/2 Ratio (Fasting/Fed)” value stood at 165.33%; the “Tmax Ratio (Fasting/Fed)” value is recorded as 229.02%. Also, in data set [2], the “Cmax Ratio (Fasting/Fed)” value is 31.9% and 31.86%; the “AUC0-∞ Ratio (Fasting/Fed)” value stood at 44.86%. Moreover, the AUC(0-t) in data set [2] (Fasting, healthy subjects) was found to be 36400 ng·h/mL. For the same compound, in data set [2] (setting [5]), the AUC(0-t) was 99500 ng·h/mL. In addition, in data set [2] (Fasting), the AUC(0-inf) was 54000 ng·h/mL, the Cmax worked out at 898 ng/mL and the Tmax came to 20.2 h. In data set [2] (Fed), the AUC(0-inf) came out at 120000 ng·h/mL, the Cmax worked out at 2820 ng/mL and the Tmax turned out to be 8.83 h. The compound further gave a half-life in data set [2] (T1/2, Fasting) of 26.8 h. For the same compound, in data set [2] (T1/2, Fed), the half-life is 16.2 h.
`O=C1NC(=O)C(c2ccccc2)(c2ccccc2)C(=O)N1` [DPB, 5,5-diphenyl barbituric acid]: in data set [2], the “Rate and extent of absorption” value is reported as “increased”; the “AUC0-t Ratio (Fasting/Fed)” value was 65.3% and 65.28%; the “T1/2 Ratio (Fasting/Fed)” value amounted to 111.62%; the “Tmax Ratio (Fasting/Fed)” value amounted to 113.50%. In data set [2], the “Cmax Ratio (Fasting/Fed)” value is 62.9% and 62.93%; the “AUC0-∞ Ratio (Fasting/Fed)” value is recorded as 68.04%. For the same compound, the AUC(0-t) in data set [2] (Fasting, healthy subjects) was 143000 ng·h/mL. Also, the AUC(0-t) in data set [2] (setting [5]) was determined as 219000 ng·h/mL. Besides, in data set [2] (Fasting), the AUC(0-inf) was 185000 ng·h/mL, the Cmax was 1750 ng/mL and the Tmax stood at 54.8 h. Further, in data set [2] (Fed), the AUC(0-inf) worked out at 271000 ng·h/mL, the Cmax was 2790 ng/mL and the Tmax was found to be 48.3 h. The compound further showed a half-life in data set [2] (T1/2, Fasting) of 43 h. Moreover, the half-life in data set [2] (T1/2, Fed) is 38.5 h. Moreover, the “Anticonvulsant activity against electroshock and chemoconvulsive seizures” value in data set [4] is on record as “anticonvulsant properties”.
